From patent EP0837071A1, “Tripeptide antithrombotic agents” (ELI LILLY AND COMPANY, priority 1990, dated 1992)
Where “and” joins values, the source holds several entries; their conditions need not be identical. Equal entries are not always repeated. Structures can show the parent of a compound that is named as a salt. Where two headings read alike, the source gives them in different places. Square brackets hold non-standard residues; d marks the D form. Peptide text beside a SMILES is read from it. * marks the point of attachment. dNMePhg = CN[C@@H](C(=O)O)c1ccccc1; dHpg = N[C@@H](C(=O)O)c1ccc(O)cc1; dChg = N[C@@H](C(=O)O)C1CCCCC1; dPhg = N[C@@H](C(=O)O)c1ccccc1; Boc = CC(C)(C)OC(=O)*

What was measured:
thrombin = biological target: T1, thrombin (Bos taurus, UniProt P00735); experiment: Inhibition of thrombin amidase activity (chromogenic substrate N-benzoyl-D-phenylalanyl-L-valyl-L-arginyl-p-nitroanilide); assay type: biochemical
T1 construct: purchased
Description: The data in the table were obtained in an assay in which thrombin hydrolyzes the chromogenic substrate, N-benzoyl-D-phenylalanyl-L-valyl-L-arginyl-p-nitroanilide.
The assay was carried out in 50 µl buffer (0.03M Tris, 0.15M NaCl, pH 7.4) with 25 µl of thrombin solution (0.21 mg/ml of thrombostat powder in 0.06 M Tris, 0.3M NaCl, pH 7.4) and 150 µl of an aqueous solution of the chromogenic substrate at a concentration of 0.25 mg/ml. Solutions of test compound (25 µl) at various concentrations were added. […] Standard curves were constructed by plotting free thrombin concentration against hydrolysis rate. […] The amount of free inhibitor in each assay was calculated by subtracting the number of moles of bound thrombin from the number of moles of added inhibitor (test compound).
The Kass value is the hypothetical equilibrium constant for the reaction between thrombin and the test compouhnd (I). Thrombin + I ⇄ Thrombin - I [formula] Kass =([Thrombin I])/([ (Thrombin) x (I) ]) [formula]
Kass was calculated for a range of concentrations of test compounds and the mean value is reported in units of liter per mole.

plasma [1] = experiment: Plasma coagulation assay: prothrombin time; assay type: biochemical; conditions: thromboplastin (Dade)
Description: (§1) The numerical values in the table are the concentrations of the test compounds (ng/ml) required to prolong coagulation by 2-fold in the three tests. The thrombin time evaluation was carried out in plasma and separately determined in a buffer system at […].
(§2) The data presented in Table 2 were obtained using a CoaScreener instrument from Tecan, Inc. in the assay protocols listed below. Prothrombin Time: 50 µl plasma 50 µl saline 7 µl test solution 50 µl thromboplastin (Dade) Thrombin Time: 50 µl plasma 50 µl saline 7 µl test compound 50 µl bovine thrombin (2 NIH unit/ml) In the Thrombin Time determined in pH 7.4 buffer fibrinogen was used instead of plasma. APTT: 50 µl plasma 50 µl Actin (Dade) 7 µl test solution 50 µl CaCl2 (0.01M).

plasma [2] = experiment: Plasma coagulation assay: activated partial thromboplastin time (APTT); assay type: biochemical; conditions: Actin (Dade), CaCl2
Description: as §1, §2

bovine thrombin [3] = biological target: T2, bovine thrombin (Bos taurus, UniProt P00735); experiment: Plasma coagulation assay: thrombin time; assay type: biochemical; conditions: for EC (2-fold clotting time): read-out: Thrombin Time: concentration of test compounds required to prolong coagulation by 2-fold
T2 construct: 50 µl bovine thrombin (2 NIH unit/ml)
Description: as §1, §2

bovine thrombin [4] = biological target: T2, bovine thrombin; experiment: Thrombin time in buffer (fibrinogen instead of plasma); assay type: biochemical
Description: as §1, §2

[5] = system: Arterial Thrombosis in the Rat; experiment: FeCl3-induced arterial thrombosis in the carotid artery of the rat; assay type: in vivo; conditions: infusion from 15 min before to 60 min after FeCl3 application, NA = Not active at 4 mg/kg/h or at 7 mg/kg/h, the highest doses tested
Description: The antithrombotic activity of representative compounds of the invention was determined in in vivo tests carried out in the rat. The test employed induced arterial thrombosis in the carotid artery of the rat and measured the infusion dose of test compound required to maintain blood flow for fifty minutes past the time of occlusion. The test was performed as follows.
Arterial thrombosis was induced in the rat by injury of the carotid artery. Topical application of a ferric chloride solution was used to injure the vessel. […] Animals were laid on a water blanket in which the circulated water was maintained at 37° C. The carotid artery was approached through a midline cervical incision. Careful blunt dissection was used to expose and isolate the vessel from the carotid sheath. A silk suture was pulled underneath the artery to lift the vessel to provide clearance to insert a thermocouple underneath it. […] The discs were cut to equal size using sharpened stainless steel tubing (3 mm i.d.) chucked in a drill press. A saturated disc was placed on each carotid artery above the thermocouple. The time between FeCl3 application and the time at which temperature decreased abruptly was recorded as time to occlusion (TTO) of the vessel. The average time required for both vessels to occlude was used to represent TTO for each animal.
Test compounds were dissolved in isotonic saline. A syringe pump was used to infuse drug solutions starting 15 min before FeCl3 application and continuing for 60 min after FeCl3 application. Dose-response curves were plotted to determine the relationship between the log10 of the infused doses and the TTO of the injured arteries.
The association between vessel occlusion and the abrupt temperature decrease was established by simultaneously recording the temperature and blood flow on the same recorder. A pulsed Doppler flow probe was placed around the carotid artery proximal to the thermocouple. […] Results were reported as percent change from initial baseline values (6 min before occlusion). The time at which vessel temperature decreased rapidly was arbitrarily established as zero and pre- and post-occlusion temperature and flow values were referenced from that point.

[6] = Thrombin Amidase Kass, apparent equilibrium (association) constant, mean over a range of concentrations, pH 7.4, acetate salts unless indicated otherwise
[7] = apparent equilibrium (association) constant, mean over a range of concentrations, pH 7.4, acetate salts unless indicated otherwise, read-out: Thrombin Amidase Kass (converted)
[8] = plasma, bovine thrombin (2 NIH unit/ml)
[9] = buffer pH 7.5, fibrinogen instead of plasma, read-out: Buffer (pH 7.5) Thrombin Time: concentration of test compounds required to prolong coagulation by 2-fold

| Structure (SMILES) | Kd (thrombin; [6]) | EC (2-fold clotting time) (bovine thrombin [3]; [8]) [µg/mL] | Prothrombin Time: concentration of test compounds required to prolong coagulation by 2-fold (plasma [1]) [ng/mL] | APTT: concentration of test compounds required to prolong coagulation by 2-fold (plasma [2]) [ng/mL] | further results |
| --- | --- | --- | --- | --- | --- |
| CC(C)(C)OC(=O)N[C@@H](C(=O)N1CCC[C@H]1C(=O)N[C@H](C=O)CCCNC(=N)N)c1cccs1 [N-Boc-D-2-thienyiglycyl] | 71.4 nM | – | – | – | – |
| CC[C@@H](C(=O)N1CCC[C@H]1C(=O)N[C@H](C=O)CCCNC(=N)N)c1ccccc1 [(R)-α-Ethylphenylacetyl] | – | – | 700 | 2275 | Kd (thrombin; [7]): 133 nM |
| C[C@H](C(=O)N1CCC[C@H]1C(=O)N[C@H](C=O)CCCNC(=N)N)c1ccccc1 [(S)-α-Methylphenylacetyl] | – | – | – | – | Kd (thrombin; [7]): 5000 nM |
| CO[C@@H](C(=O)N1CCC[C@H]1C(=O)N[C@H](C=O)CCCNC(=N)N)c1ccccc1 [(R)-α-Methoxyphenylacetyl] | – | – | >909 | >909 | Kd (thrombin; [7]): 238 nM |
| COc1ccc([C@@H](NC(C)=O)C(=O)N2CCC[C@H]2C(=O)N[C@H](C=O)CCCNC(=N)N)cc1 [N-Acetyl-D-(4-methoxy)phenylglycyl] | 64.5 nM | 0.16 | 900 | 2600 | – |
| CC(C)(C)OC(=O)N[C@@H](C(=O)N1CCC[C@H]1C(=O)N[C@H](C=O)CCCNC(=N)N)c1ccc2ccccc2c1 [N-Boc-D-2-naphthylglycyl, N-Boc-D-2-naphthylglycyl-Pro-Arg-H diacetate] | – | – | 1200 | 1200 | Kd (thrombin): 45 nM; Thrombin Time: concentration of test compounds required to prolong coagulation by 2-fold (bovine thrombin [3]; [8]): 230 ng/mL; Buffer (pH 7.5) Thrombin Time: concentration of test compounds required to prolong coagulation by 2-fold (bovine thrombin [4]; buffer pH 7.5, fibrinogen instead of plasma): 142 ng/ml |
| N=C(N)NCCC[C@@H](C=O)NC(=O)[C@@H]1CCCN1C(=O)[C@H](N)c1ccccc1 [D-Phenylglycyl, D-Phg-L-Pro-L-Arg-H] (H-[dPhg]-Pro-Arg-aldehyde) | – | 0.091 | 91 | 1139 | – |
| CC(C)(C)OC(=O)N[C@@H](C(=O)N1CCC[C@H]1C(=O)N[C@H](C=O)CCCNC(=N)N)c1ccc(O)cc1 [N-Boc-D-(4-hydroxy)phenylglycyl, N-Boc-D-(4-hydroxyphenylglycyl)-Pro-Arg-H diacetate] (Boc-[dHpg]-Pro-Arg-aldehyde) | – | 0.182 | 1636 | 1091 | – |
| NC(N)=NCCC[C@@H](C=O)NC(=O)[C@@H]1CCCN1C(=O)[C@H](N)c1ccccc1 [D-Phenylglycyl, D-Phg-L-Pro-L-Arg-H] (H-[dPhg]-Pro-Arg-aldehyde) | 13.3 nM | – | – | – | – |
| N=C(N)NCCC[C@@H](C=O)NC(=O)[C@@H]1CCCN1C(=O)C1NCCc2ccccc21 (mixture of isomers) | 11.4 nM | – | – | – | – |
| CC(C)(C)OC(=O)N[C@@H](C(=O)N1CCC[C@H]1C(=O)N[C@H](C=O)CCCNC(=N)N)c1ccccc1 [N-Boc-D-phenylglycyl, N-(t-Butyloxycarbonyl)-D-phenylglycyl-L-Prolyl-L-Arginine aldehyde (Boc-D-Phg-Pro-Arg-H) diacetate salt] (Boc-[dPhg]-Pro-Arg-aldehyde) | – | – | 667 | 1169 | EC (2-fold clotting time) (bovine thrombin [3]): 0.11 µg/mL; EC (2-fold clotting time) (bovine thrombin [4]; pH 7.5, read-out: Buffer (pH 7.5) Thrombin Time: concentration of test compounds required to prolong coagulation by 2-fold): 0.118 µg/mL; ED50 (infusion dose required to maintain blood flow for 50 min) [5]: 2.9 mg/kg/h |
| C[C@@H](C(=O)N1CCC[C@H]1C(=O)N[C@H](C=O)CCCNC(=N)N)c1ccccc1 [(R)-α-Methylphenylacetyl] | – | – | – | – | Kd (thrombin; [7]): 90.9 nM |
| CC(C)(C)OC(=O)N1CCc2ccccc2C1C(=O)N1CCC[C@H]1C(=O)N[C@H](C=O)CCCNC(=N)N (mixture of isomers) [Boc-1,2,3,4-tetrahydroisoquinolin-1-ylcarbonyl-Pro-Arg-H] | 263 nM | – | – | – | – |

Further lines, with some results ahead:

| Kd (thrombin; [6]) | EC (2-fold clotting time) (bovine thrombin [3]; [8]) [µg/mL] | Structure (SMILES) | Prothrombin Time: concentration of test compounds required to prolong coagulation by 2-fold (plasma [1]) [ng/mL] | APTT: concentration of test compounds required to prolong coagulation by 2-fold (plasma [2]) [ng/mL] | further results |
| --- | --- | --- | --- | --- | --- |
| 8.33 nM | – | CC(C)(C)OC(=O)N[C@@H](C(=O)N1CCC[C@H]1C(=O)N[C@H](C=O)CCCN=C(N)N)C1CCCCC1 [N-Boc-D-cyclohexylglycyl] (Boc-[dChg]-Pro-Arg-aldehyde) | – | – | – |
| 13.3 nM | 0.08 | COc1ccc([C@@H](NC(=O)OC(C)(C)C)C(=O)N2CCC[C@H]2C(=O)N[C@H](C=O)CCCNC(=N)N)cc1 [N-Boc-D-(4-methoxy)phenylglycyl] | – | 640 | – |
| 9.35 nM | – | CC(C)(C)OC(=O)N[C@@H](C(=O)N1CCC[C@H]1C(=O)N[C@H](C=O)CCCN=C(N)N)c1ccccc1 [N-Boc-D-phenylglycyl (sulfate salt), N-Boc-D-Phenylglycyl-L-Prolyl-L-Arginine aldehyde (Boc-D-Phg-Pro-Arg-H) hemisulfate] (Boc-[dPhg]-Pro-Arg-aldehyde) | – | – | – |
| – | 0.079 | CC(C)(C)OC(=O)N[C@@H](C(=O)N1CCC[C@H]1C(=O)N[C@H](C=O)CCCNC(=N)N)C1CCCCC1 [N-Boc-D-cyclohexylglycyl] (Boc-[dChg]-Pro-Arg-aldehyde) | 522 | 748 | EC (2-fold clotting time) (bovine thrombin [4]; [9]): 0.06 µg/mL; ED50 (infusion dose required to maintain blood flow for 50 min) [5]: 11.3 mg/kg/h |
| 10.9 nM | 0.092 | CN[C@@H](C(=O)N1CCC[C@H]1C(=O)N[C@H](C=O)CCCNC(=N)N)c1ccccc1 [N-Methyl-D-phenylglycyl, N-methyl-D-phenylglycyl-L-prolyl-L-arginine aldehyde] (H-[dNMePhg]-Pro-Arg-aldehyde) | 899 | >909 | EC (2-fold clotting time) (bovine thrombin [4]; [9]): 0.067 µg/mL |
| 11.4 nM and 13.7 nM | – | CC(C)(C)OC(=O)N[C@@H](C(=O)N1CCC[C@H]1C(=O)N[C@H](C=O)CCCN=C(N)N)c1ccccc1 [N-Boc-D-phenylglycyl, N-(t-Butyloxycarbonyl)-D-phenylglycyl-L-Prolyl-L-Arginine aldehyde (Boc-D-Phg-Pro-Arg-H) diacetate salt] (Boc-[dPhg]-Pro-Arg-aldehyde) | – | – | – |
| 192 nM | 0.3 | CN(C(=O)OC(C)(C)C)[C@@H](C(=O)N1CCC[C@H]1C(=O)N[C@H](C=O)CCCNC(=N)N)c1ccccc1 [N-Boc-N-methyl-D-phenylglcyl] (Boc-[dNMePhg]-Pro-Arg-aldehyde) | 300 | 4545 | – |
| 8.7 nM | – | CC(C)(C)OC(=O)N[C@@H](C(=O)N1CCC[C@H]1C(=O)N[C@H](C=O)CCCN=C(N)N)c1ccc(O)cc1 [N-Boc-D-(4-hydroxy)phenylglycyl, N-Boc-D-(4-hydroxyphenylglycyl)-Pro-Arg-H diacetate] (Boc-[dHpg]-Pro-Arg-aldehyde) | – | – | – |
| 164 nM | 0.46 | COc1ccc2cc([C@@H](NC(=O)OC(C)(C)C)C(=O)N3CCC[C@H]3C(=O)N[C@H](C=O)CCCNC(=N)N)ccc2c1 [N-Boc-D-(6-methoxy)-2-naphthylglycyl] | 35489 | 2239 | EC (2-fold clotting time) (bovine thrombin [4]; [9]): 0.466 µg/mL |
| 25 nM | – | CC(C)(C)OC(=O)NC(C(=O)N1CCC[C@H]1C(=O)N[C@H](C=O)CCCNC(=N)N)c1ccc(Cl)c(Cl)c1 (mixture of isomers) [N-Boc-DL-(3,4-dichloro)phenylglycyl] | – | – | – |
